Results taken from ChEMBL document CHEMBL1201862, “PubChem BioAssay data set” (2004).
Structures can show the parent of a compound that is named as a salt.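 Five concentrations, 48 hours, 96-well plates. Here, GI50 denotes the concentration required for 50% inhibition of growth.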 Activity calls are given as the source filed them. Rule as the data show it: active = GI50 up to about 1.1 µM and inactive = higher.

Assays:
Test in all cases: DTP human tumour cell line panel, 48 h
SF-268 = system: SF-268
T47D = system: T47D
SN12C = system: SN12C
KM12 = system: KM12
PC-3 = system: PC-3
786-0 = system: 786-0
SK-OV-3 = system: SK-OV-3
HCT-15 = system: HCT-15
SK-MEL-5 = system: SK-MEL-5
MOLT-4 = system: MOLT-4
HL-60 = system: HL-60
NCI-H460 = system: NCI-H460
CAKI-1 = system: CAKI-1
NCI-H226 = system: NCI-H226
A498 = system: A498
Malme-3M = system: Malme-3M
RXF 393 = system: RXF 393
SK-MEL-28 = system: SK-MEL-28
HCC 2998 = system: HCC 2998

| SMILES | GI50 (SF-268) | GI50 (T47D) | GI50 (SN12C) | GI50 (KM12) | GI50 (PC-3) | GI50 (786-0) | GI50 (SK-OV-3) | GI50 (HCT-15) | GI50 (SK-MEL-5) | GI50 (MOLT-4) | GI50 (HL-60) | GI50 (NCI-H460) | GI50 (CAKI-1) | GI50 (NCI-H226) | GI50 (A498) | GI50 (Malme-3M) | GI50 (RXF 393) | GI50 (SK-MEL-28) | GI50 (HCC 2998) |
| --- | --- | --- | --- | --- | --- | --- | --- | --- | --- | --- | --- | --- | --- | --- | --- | --- | --- | --- | --- |
| Clc1ccc2oc(CCc3ccccc3)nc2c1 | 87.9 µM (inactive) | 20.5 µM (inactive) | 66.1 µM (inactive) | 37.3 µM (inactive) | 48.6 µM (inactive) | 53.8 µM (inactive) | 47.2 µM (inactive) | 38.5 µM | 20.3 µM (inactive) | 35.4 µM (inactive) | 34.7 µM (inactive) | 59.2 µM (inactive) | 38.2 µM (inactive) | 32.6 µM (inactive) | 26.3 µM (inactive) | > 100 µM (inactive) | 24.9 µM (inactive) | 72.3 µM (inactive) | 27.4 µM (inactive) |
| CC1OC(OC2C(O[C@H]3CC[C@@]4(C)C(=CC[C@H]5[C@@H]6C[C@@H]7O[C@]8(CC[C@H](C)CN8)[C@@H](C)[C@@H]7[C@@]6(C)CC[C@@H]54)C3)OC(CO)C(O)C2OC2OC(CO)C(O)C(O)C2O)C(O)C(O)C1O (some centres undefined) | 16.6 µM (inactive) | 19.5 µM (inactive) | 20.8 µM (inactive) | 20 µM (inactive) | 18.1 µM (inactive) | 24 µM (inactive) | 16.9 µM (inactive) | 16.7 µM | 19.2 µM (inactive) | 18.9 µM (inactive) | 15.5 µM (inactive) | 17.8 µM (inactive) | 19.2 µM (inactive) | 17.4 µM (inactive) | 26.9 µM (inactive) | 18 µM (inactive) | 15.8 µM (inactive) | 19.1 µM (inactive) | 18.3 µM (inactive) |
| CC(=O)OC(Cc1ccc2ccccc2n1)(C(F)(F)F)C(F)(F)F | 2.17 µM (inactive) | 0.181 µM (active) | 1.27 µM (inactive) | 4.7 µM (inactive) | 2.09 µM (inactive) | 1.52 µM (inactive) | 14.3 µM (inactive) | 1.97 µM | 0.253 µM (active) | 0.0796 µM (active) | 0.0205 µM (active) | 6 µM (inactive) | 0.802 µM (active) | 1.76 µM (inactive) | 1.95 µM (inactive) | 0.849 µM (active) | 0.675 µM (active) | 1.42 µM (inactive) | 0.851 µM (active) |
| COC(=O)/C=C/CC(=O)NS(C)(=O)=O | > 10 µM (inactive) | > 10 µM (inactive) | > 10 µM (inactive) | > 10 µM (inactive) | > 10 µM (inactive) | > 10 µM (inactive) | > 10 µM (inactive) | > 10 µM | > 10 µM (inactive) | > 10 µM (inactive) | > 10 µM (inactive) | > 10 µM (inactive) | > 10 µM (inactive) | > 10 µM (inactive) | > 10 µM (inactive) | > 10 µM (inactive) | > 10 µM (inactive) | > 10 µM (inactive) | > 10 µM (inactive) |
| O=C1/C(=C/c2ccc(O)cc2)CCc2ccc([N+](=O)[O-])cc21 | > 61.7 µM (inactive) | 68.7 µM (inactive) | > 100 µM (inactive) | > 76 µM (inactive) | > 100 µM (inactive) | > 80.5 µM (inactive) | > 84.7 µM (inactive) | > 100 µM | > 81.8 µM (inactive) | 3.63 µM (inactive) | 5.5 µM (inactive) | 45.9 µM (inactive) | > 82.6 µM (inactive) | 28.7 µM (inactive) | 34.6 µM (inactive) | 98.2 µM (inactive) | 33.3 µM (inactive) | > 100 µM (inactive) | > 100 µM (inactive) |
| O=C(O)CCNc1[nH]cnc2ncnc1-2 | > 100 µM (inactive) | > 100 µM (inactive) | > 100 µM (inactive) | > 100 µM (inactive) | > 100 µM (inactive) | > 100 µM (inactive) | > 100 µM (inactive) | > 100 µM | > 100 µM (inactive) | – | > 100 µM (inactive) | > 100 µM (inactive) | > 100 µM (inactive) | > 100 µM (inactive) | > 100 µM (inactive) | > 100 µM (inactive) | > 100 µM (inactive) | > 100 µM (inactive) | > 100 µM (inactive) |
| COc1ccc(NC(=O)CC(=O)n2nc(C)c(/N=N/c3ccc(C)c(C)c3)c2C)cc1 | 33.8 µM (inactive) | 64.7 µM (inactive) | > 100 µM (inactive) | > 100 µM (inactive) | > 100 µM (inactive) | 41.6 µM (inactive) | 10.8 µM (inactive) | – | > 100 µM (inactive) | 78.3 µM (inactive) | 48.3 µM (inactive) | > 100 µM (inactive) | > 100 µM (inactive) | 51.3 µM (inactive) | 63.8 µM (inactive) | > 100 µM (inactive) | 32.4 µM (inactive) | > 100 µM (inactive) | > 100 µM (inactive) |
| CC(C)C[C@H]1C(=O)N2CCC[C@H]2[C@]2(O)O[C@](NC(=O)[C@@H]3C=C4c5cccc6[nH]c(Br)c(c56)C[C@H]4N(C)C3)(C(C)C)C(=O)N12 [BROMOCRIPTINE MESYLATE] | 59.6 µM (inactive) | 28.2 µM (inactive) | 56.1 µM (inactive) | 9.82 µM (inactive) | 4.17 µM (inactive) | 53.2 µM (inactive) | > 100 µM (inactive) | 8.67 µM | 21.7 µM (inactive) | 4.34 µM (inactive) | 2.51 µM (inactive) | 10.8 µM (inactive) | 46.1 µM (inactive) | 51.2 µM (inactive) | > 100 µM (inactive) | 36.5 µM (inactive) | 24.7 µM (inactive) | > 100 µM (inactive) | 32.8 µM (inactive) |
| Cc1ccc(S(=O)(=O)N2CCN(CCN(C)CCN3CCN(S(=O)(=O)c4ccc(C)cc4)CC3)CC2)cc1 | 17.2 µM (inactive) | 19.3 µM (inactive) | 18.5 µM (inactive) | 15.1 µM (inactive) | 20.7 µM (inactive) | 19.4 µM (inactive) | 18.4 µM (inactive) | 17.6 µM | 16.3 µM (inactive) | 14.1 µM (inactive) | 16.1 µM (inactive) | 17.5 µM (inactive) | 19.4 µM (inactive) | 25.7 µM (inactive) | 16.4 µM (inactive) | 18.6 µM (inactive) | 14.3 µM (inactive) | 17.1 µM (inactive) | 15.9 µM (inactive) |
| CCCCCCOc1ccc(NC2=C(Cl)C(=O)c3c(O)ccc(O)c3C2=O)cc1 | 6.22 µM (inactive) | 2.03 µM (inactive) | 1.86 µM (inactive) | 1.88 µM (inactive) | 3.09 µM (inactive) | 0.611 µM (active) | > 10 µM (inactive) | 1.91 µM | 1.31 µM (inactive) | 2.31 µM (inactive) | 1.77 µM (inactive) | 1.01 µM (active) | 5.28 µM (inactive) | 3.88 µM (inactive) | 4.57 µM (inactive) | 1.83 µM (inactive) | 2.32 µM (inactive) | 2 µM (inactive) | 1.8 µM (inactive) |
| COP(=O)(/C=C/C(NC(=O)C(Cl)(Cl)Cl)c1ccccc1)OC (centres undefined) | > 100 µM (inactive) | > 100 µM (inactive) | > 100 µM (inactive) | > 100 µM (inactive) | > 100 µM (inactive) | > 100 µM (inactive) | > 100 µM (inactive) | > 100 µM | > 100 µM (inactive) | > 100 µM (inactive) | > 100 µM (inactive) | > 100 µM (inactive) | > 100 µM (inactive) | > 100 µM (inactive) | > 100 µM (inactive) | > 100 µM (inactive) | > 100 µM (inactive) | > 100 µM (inactive) | > 100 µM (inactive) |
| CC(=O)[C@H]1[C@@H](OCc2ccccc2)O[N+]([O-])=C(C)[C@@H]1c1ccccc1 | 37.2 µM (inactive) | 21.3 µM (inactive) | – | 37.4 µM (inactive) | 36.1 µM (inactive) | 17.6 µM (inactive) | > 100 µM (inactive) | 27.7 µM | 48.5 µM (inactive) | 17.2 µM (inactive) | 19 µM (inactive) | 53.8 µM (inactive) | 23.6 µM (inactive) | 52.1 µM (inactive) | > 100 µM (inactive) | 26.4 µM (inactive) | 17.3 µM (inactive) | 27.2 µM (inactive) | > 100 µM (inactive) |
| CC(C)(O)CCC(O)C(C)(O)C1CCC2(O)C3=CC(=O)C4(O)CC(O)C(O)CC4(C)C3CCC12C.CC(C)(O)CCC(O)C(C)(O)C1CCC2(O)C3=CC(=O)C4CC(O)C(O)CC4(C)C3CCC12C (centres undefined) | > 100 µM (inactive) | > 100 µM (inactive) | > 100 µM (inactive) | > 100 µM (inactive) | > 100 µM (inactive) | > 100 µM (inactive) | > 100 µM (inactive) | > 100 µM | > 100 µM (inactive) | > 100 µM (inactive) | > 100 µM (inactive) | > 100 µM (inactive) | > 100 µM (inactive) | > 100 µM (inactive) | > 100 µM (inactive) | > 100 µM (inactive) | > 100 µM (inactive) | > 100 µM (inactive) | – |
| CC1CCCCN1CC(=O)c1ccc2c(c1)Sc1ccccc1O2 (centres undefined) | 18.7 µM (inactive) | 20.7 µM (inactive) | 18.7 µM (inactive) | 16.5 µM (inactive) | 11.8 µM (inactive) | 14.1 µM (inactive) | 16.4 µM (inactive) | 19.7 µM | – | 19.3 µM (inactive) | 10.2 µM (inactive) | 14.2 µM (inactive) | 17.9 µM (inactive) | 12.9 µM (inactive) | 18.8 µM (inactive) | 13.5 µM (inactive) | 13.8 µM (inactive) | 16.6 µM (inactive) | 17.7 µM (inactive) |
| NC12CC3C4CC5(N)CC3C(C1)C(C5)C4C2 | > 100 µM (inactive) | > 100 µM (inactive) | > 100 µM (inactive) | > 100 µM (inactive) | > 100 µM (inactive) | > 100 µM (inactive) | > 100 µM (inactive) | > 100 µM | > 100 µM (inactive) | > 100 µM (inactive) | > 100 µM (inactive) | > 100 µM (inactive) | > 100 µM (inactive) | > 100 µM (inactive) | > 100 µM (inactive) | > 100 µM (inactive) | > 100 µM (inactive) | > 100 µM (inactive) | – |
